The experiment has as its system MEK. The experiment in a line: Cellular Assay for Measuring MEK Inhibition (inhibition of ERK phosphorylation in C26 cells, Western blot). It counts as cell-based, murine. The note with it: for % Inhibition @ 0.1 μM / % Inhibition @ 1 μM / % Inhibition @ 10 μM: ERK phosphorylation in C26 cells; for IC50: inhibition of ERK phosphorylation in murine colon 26 (C26) carcinoma cells, determined graphically from dose response curve. In short, it runs like this: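 Read-out is phospho-ERK1/2 by Western blot, normalized against total ERK1/2 after stripping and re-probing. Murine C26 colon carcinoma cells in exponential growth were exposed to a range of compound concentrations at 37° C before lysis.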

On to `CC(C)(O)CONC(=O)c1ccc(F)c(F)c1Nc1ccc(I)cc1F` [Example 177, 3,4-Difluoro-2-(2-fluoro-4-iodo-phenylamino)-N-(2-hydroxy-2-methyl-propoxy)-benzamide], for which the “% Inhibition @ 0.1 μM” value turned out to be 91.6% and the “% Inhibition @ 1 μM” value turned out to be 95.7%. In the case of `CC(C)(O)CONC(=O)c1cc(Br)c(F)c(F)c1Nc1ccc(I)cc1F` [Example 178, 5-Bromo-3,4-difluoro-2-(2-fluoro-4-iodo-phenylamino)-N-(2-hydroxy-2-methyl-propoxy)-benzamide], the “% Inhibition @ 0.1 μM” value is recorded as 61.8% and the “% Inhibition @ 1 μM” value was found to be 94.9%. The like results for `CC(C)(O)CONC(=O)c1cc(Cl)c(F)c(F)c1Nc1ccc(I)cc1F` [Example 179, 5-Chloro-3,4-difluoro-2-(2-fluoro-4-iodo-phenylamino)-N-(2-hydroxy-2-methyl-propoxy)-benzamide] were, in that order, 90.4% and 99.3%. Consider `CC(C)(O)CONC(=O)c1cc(Cl)c(F)c(F)c1Nc1ccc(F)cc1F` [Example 180, 5-Chloro-2-(2,4-difluoro-phenylamino)-3,4-difluoro-N-(2-hydroxy-2-methyl-propoxy)-benzamide], for which the “% Inhibition @ 1 μM” value is 34% and the “% Inhibition @ 10 μM” value is listed as 58.6%. Taken in the same sequence, the figures for `CC(C)(O)CONC(=O)c1ccc(F)c(F)c1Nc1ccc(F)cc1F` [Example 181, 2-(2,4-Difluoro-phenylamino)-3,4-difluoro-N-(2-hydroxy-2-methyl-propoxy)-benzamide] were 0% and 65.1%. As to `CC(C)(O)CONC(=O)c1ccc(F)c(F)c1Nc1ccc(Br)cc1F` [Example 182, 2-(4-Bromo-2-fluoro-phenylamino)-3,4-difluoro-N-(2-hydroxy-2-methyl-propoxy)-benzamide], the “% Inhibition @ 0.1 μM” value is recorded as 13.1% and the “% Inhibition @ 1 μM” value turned out to be 81.9%.

One may read the IC50 as the concentration that inhibits the measured activity by half. As for `O=C(NOCC(O)COc1ccccc1)c1ccc(F)c(F)c1Nc1ccc(I)cc1Cl` (centres unmarked) [Example 183], the IC50 worked out at 53 nM.

On to `O=C(NOCC(O)COc1ccccc1)c1cc(F)c(F)c(F)c1Nc1ccc(I)cc1Cl` (centres unmarked) [Example 184, 2-(2-Chloro-4-iodo-phenylamino)-3,4,5-trifluoro-N-(2-hydroxy-3-phenoxy-propoxy)-benzamide], for which the “% Inhibition @ 0.1 μM” value was 16.1% and the “% Inhibition @ 1 μM” value was 82.5%. The like results for `Cc1cc(I)ccc1Nc1c(C(=O)NOCC(O)COc2ccccc2)cc(F)c(F)c1F` (centres unmarked) [Example 185, 3,4,5-Trifluoro-N-(2-hydroxy-3-phenoxy-propoxy)-2-(4-iodo-2-methyl-phenylamino)-benzamide] were, in that order, 6.2% and 71.9%. `O=C(NOCC(O)COc1ccccc1)c1cc(Br)c(F)c(F)c1Nc1ccc(I)cc1Cl` (centres unmarked) [Example 186, 5-Bromo-2-(2-chloro-4-iodo-phenylamino)-3,4-difluoro-N-(2-hydroxy-3-phenoxy-propoxy)-benzamide] came in with an IC50 of 34 nM.

For the compound `Cc1cc(I)ccc1Nc1c(C(=O)NOCC(O)COc2ccccc2)cc(Br)c(F)c1F` (centres unmarked) [Example 187, 5-Bromo-3,4-difluoro-N-(2-hydroxy-3-phenoxy-propoxy)-2-(4-iodo-2-methyl-phenylamino)-benzamide], the “% Inhibition @ 0.1 μM” value is recorded as 13.8% and the “% Inhibition @ 1 μM” value is 83.3%. Turning to `Cc1cc(I)ccc1Nc1c(C(=O)NOCC(O)COc2ccccc2)ccc(F)c1F` (centres unmarked) [Example 188, 3,4-Difluoro-N-(2-hydroxy-3-phenoxy-propoxy)-2-(4-iodo-2-methyl-phenylamino)-benzamide], 44 nM corresponded to half-maximal inhibition (IC50). For `Cc1cc(I)ccc1Nc1c(C(=O)NOCC(O)COc2ccccc2)cc(Cl)c(F)c1F` (centres unmarked) [Example 190, 5-Chloro-3,4-difluoro-N-(2-hydroxy-3-phenoxy-propoxy)-2-(4-iodo-2-methyl-phenylamino)-benzamide], the “% Inhibition @ 0.1 μM” value was 51.5% and the “% Inhibition @ 1 μM” value is on record as 94.6%.

The compound `O=C(NOCC(O)COc1ccccc1)c1ccc(F)c(F)c1Nc1ccc(I)cc1F` (centres unmarked) [Example 191, 3,4-Difluoro-2-(2-fluoro-4-iodo-phenylamino)-N-(2-hydroxy-3-phenoxy-propoxy)-benzamide] gave an IC50 of 6 nM. The same measure, in the same setting: next, `O=C(NOCC(O)COc1ccccc1)c1cc(Cl)c(F)c(F)c1Nc1ccc(I)cc1F` (centres unmarked) [Example 192, 5-Chloro-3,4-difluoro-2-(2-fluoro-4-iodo-phenylamino)-N-(2-hydroxy-3-phenoxy-propoxy)-benzamide]: 7 nM; `O=C(NOCC(O)COc1ccccc1)c1cc(F)c(F)cc1Nc1ccc(I)cc1F` (centres unmarked) [Example 193, 4,5-Difluoro-2-(2-fluoro-4-iodo-phenylamino)-N-(2-hydroxy-3-phenoxy-propoxy)-benzamide]: 10 nM. Take `O=C(NOCC(O)COc1ccccc1)c1cc(Cl)c(F)c(F)c1Nc1ccc(F)cc1F` (centres unmarked) [Example 194, 5-Chloro-2-(2,4-difluoro-phenylamino)-3,4-difluoro-N-(2-hydroxy-3-phenoxy-propoxy)-benzamide]: the “% Inhibition @ 0.1 μM” value is 0% and the “% Inhibition @ 1 μM” value is reported as 0%. Regarding `O=C(NOCC(O)COc1ccccc1)c1ccc(F)c(F)c1Nc1ccc(F)cc1F` (centres unmarked) [Example 195, 2-(2,4-Difluoro-phenylamino)-3,4-difluoro-N-(2-hydroxy-3-phenoxy-propoxy)-benzamide], the “% Inhibition @ 1 μM” value is 26.7% and the “% Inhibition @ 10 μM” value was determined as 82.6%. As to `O=C(NOCC(O)COc1ccccc1)c1ccc(F)c(F)c1Nc1ccc(Cl)cc1F` (centres unmarked) [Example 196, 2-(4-Chloro-2-fluoro-phenylamino)-3,4-difluoro-N-(2-hydroxy-3-phenoxy-propoxy)-benzamide], the “% Inhibition @ 0.1 μM” value was 10.2% and the “% Inhibition @ 1 μM” value is reported as 82.8%.

In turn, `Cc1cc(I)ccc1Nc1c(C(=O)NOCC(C)(C)CO)ccc(F)c1F` [Example 197, 3,4-Difluoro-N-(3-hydroxy-2,2-dimethyl-propoxy)-2-(4-iodo-2-methyl-phenylamino)-benzamide] gave an IC50 of 51 nM. `CC(C)(CO)CONC(=O)c1cc(F)c(F)c(F)c1Nc1ccc(I)cc1Cl` [Example 198, 2-(2-Chloro-4-iodo-phenylamino)-3,4,5-trifluoro-N-(3-hydroxy-2,2-dimethyl-propoxy)-benzamide]: the “% Inhibition @ 0.1 μM” value came out at 0% and the “% Inhibition @ 1 μM” value was 43.5%. `Cc1cc(I)ccc1Nc1c(C(=O)NOCC(C)(C)CO)cc(F)c(F)c1F` [Example 199, 3,4,5-Trifluoro-N-(3-hydroxy-2,2-dimethyl-propoxy)-2-(4-iodo-2-methyl-phenylamino)-benzamide] had an IC50 of 100 nM. The compound `CC(C)(CO)CONC(=O)c1cc(Cl)c(F)c(F)c1Nc1ccc(I)cc1Cl` [Example 200, 5-Chloro-2-(2-chloro-4-iodo-phenylamino)-3,4-difluoro-N-(3-hydroxy-2,2-dimethyl-propoxy)-benzamide] came in with an IC50 of 300 nM.

With `Cc1cc(I)ccc1Nc1c(C(=O)NOCC(C)(C)CO)cc(Cl)c(F)c1F` [Example 201, 5-Chloro-3,4-difluoro-N-(3-hydroxy-2,2-dimethyl-propoxy)-2-(4-iodo-2-methyl-phenylamino)-benzamide], 100 nM corresponded to half-maximal inhibition (IC50). `CC(C)(CO)CONC(=O)c1ccc(F)c(F)c1Nc1ccc(I)cc1F` [Example 202, 3,4-Difluoro-2-(2-fluoro-4-iodo-phenylamino)-N-(3-hydroxy-2,2-dimethyl-propoxy)-benzamide]: the “% Inhibition @ 0.1 μM” value stood at 59.7% and the “% Inhibition @ 1 μM” value was 94.6%. On to `CC(C)(CO)CONC(=O)c1cc(Cl)c(F)c(F)c1Nc1ccc(F)cc1F` [Example 203, 5-Chloro-2-(2,4-difluoro-phenylamino)-3,4-difluoro-N-(3-hydroxy-2,2-dimethyl-propoxy)-benzamide], for which the “% Inhibition @ 1 μM” value came out at 0% and the “% Inhibition @ 10 μM” value is 37.4%. Take `COCCOCCONC(=O)c1cc(Br)c(F)c(F)c1Nc1ccc(I)cc1C` [Example 206, 5-Bromo-3,4-difluoro-2-(4-iodo-2-methyl-phenylamino)-N-[2-(2-methoxy-ethoxy)-ethoxy]-benzamide]: inhibition was half-maximal at 140 nM (IC50). On the same count and under the same terms, with `COCCOCCONC(=O)c1ccc(F)c(F)c1Nc1ccc(I)cc1Cl` [Example 207, 2-(2-Chloro-4-iodo-phenylamino)-3,4-difluoro-N-[2-(2-methoxy-ethoxy)-ethoxy]-benzamide] the figure was 212 nM. Still for that read-out and setting: with `COCCOCCONC(=O)c1cc(F)c(F)c(F)c1Nc1ccc(I)cc1Cl` [Example 208, 2-(2-Chloro-4-iodo-phenylamino)-3,4,5-trifluoro-N-[2-(2-methoxy-ethoxy)-ethoxy]-benzamide] the figure was 1030 nM.

`O=C(NOCC(O)C(F)(F)F)c1cc(F)c(F)c(F)c1Nc1ccc(I)cc1F` (centres unmarked) [Example 210, 3,4,5-Trifluoro-2-(2-fluoro-4-iodo-phenylamino)-N-(3,3,3-trifluoro-2-hydroxy-propoxy)-benzamide]: the “% Inhibition @ 0.1 μM” value is on record as 79.7% and the “% Inhibition @ 1 μM” value was 99.2%. On to `O=C(NOCC(O)C(F)(F)F)c1cc(Cl)c(F)c(F)c1Nc1ccc(F)cc1F` (centres unmarked) [Example 211, 5-Chloro-2-(2,4-difluoro-phenylamino)-3,4-difluoro-N-(3,3,3-trifluoro-2-hydroxy-propoxy)-benzamide], for which the “% Inhibition @ 1 μM” value is listed as 35% and the “% Inhibition @ 10 μM” value was determined as 71.9%. Taken in the same sequence, the figures for `O=C(NOCC(O)C(F)(F)F)c1ccc(F)c(F)c1Nc1ccc(F)cc1F` (centres unmarked) [Example 212, 2-(2,4-Difluoro-phenylamino)-3,4-difluoro-N-(3,3,3-trifluoro-2-hydroxy-propoxy)-benzamide] were 20.1% and 85.1%.

For `O=C(NOCC(O)C(F)(F)F)c1ccc(F)c(F)c1Nc1ccc(Cl)cc1F` (centres unmarked) [Example 213, 2-(4-Chloro-2-fluoro-phenylamino)-3,4-difluoro-N-(3,3,3-trifluoro-2-hydroxy-propoxy)-benzamide], the “% Inhibition @ 0.1 μM” value is 6.2% and the “% Inhibition @ 1 μM” value was determined as 78.7%.
